In article PMC11501026, “L-Arginine and asymmetric dimethylarginine (ADMA) transport across the mouse blood-brain and blood-CSF barriers: Evidence of saturable transport at both interfaces and CNS to blood efflux” (PLOS ONE, 2024):
Where a name gives a salt, the structure may show the parent alone.

Test: in situ brain/choroid plexus perfusion: CNS uptake of [^3H]-arginine, [^3H]-ADMA and [^14C]-sucrose (multiple-time and single-time uptake analysis)
Details: for Kp at 20 min, 62.5 nM / Kp at […], 62.5 nM / Kp at […] / Kp at 30 min, 62.5 nM / Kp at 10 min: male, BALB/c, mouse, 5ml/min; for Kp at […], 62.5 nM / Kp at […]: 2.5 mins; for Kp at 10 min: CONTROL
[1] = caudate nucleus, [3H] ADMA and [14C] Sucrose uptake, mean
[2] = cerebellum, Difference (ADMA minus Sucrose), mean
[3] = cerebellum, [3H] ADMA and [14C] Sucrose uptake, mean
[4] = choroid plexus, Difference (ADMA minus Sucrose), mean
[5] = choroid plexus, [3H] ADMA and [14C] Sucrose uptake, mean
[6] = frontal cortex, Difference (ADMA minus Sucrose), mean
[7] = frontal cortex, [3H] ADMA and [14C] Sucrose uptake, mean
[8] = hippocampus, Difference (ADMA minus Sucrose), mean
[9] = hippocampus, [3H] ADMA and [14C] Sucrose uptake, mean
[10] = hypothalamus, Difference (ADMA minus Sucrose), mean
[11] = hypothalamus, [3H] ADMA and [14C] Sucrose uptake, individual mouse
[12] = hypothalamus, [3H] ADMA and [14C] Sucrose uptake, mean
[13] = occipital cortex, Difference (ADMA minus Sucrose), mean
[14] = occipital cortex, [3H] ADMA and [14C] Sucrose uptake, mean
[15] = pineal gland, Difference (ADMA minus Sucrose), mean
[16] = pineal gland, [3H] ADMA and [14C] Sucrose uptake, mean
[17] = pituitary gland, Difference (ADMA minus Sucrose), mean
[18] = pituitary gland, [3H] ADMA and [14C] Sucrose uptake, mean
[19] = pons, Difference (ADMA minus Sucrose), mean
[20] = pons, [3H] ADMA and [14C] Sucrose uptake, mean
[21] = thalamus, Difference (ADMA minus Sucrose), mean
[22] = thalamus, [3H] ADMA and [14C] Sucrose uptake, individual mouse
[23] = thalamus, [3H] ADMA and [14C] Sucrose uptake, mean

Kp at 20 min, 62.5 nM (caudate nucleus, Difference (ADMA minus Sucrose), mean): 0.256 | Kp at […], 62.5 nM [1]: 0.107 | Kp at 20 min, 62.5 nM [1]: 0.28 | Kp at […] [2]: 0.0947 | Kp at 20 min, 62.5 nM [2]: 0.273 | Kp at […] [3]: 0.112 | Kp at 20 min, 62.5 nM [3]: 0.3 | Kp at […], 62.5 nM [4]: 0.671 | Kp at 20 min, 62.5 nM [4]: 1.92 | Kp at […], 62.5 nM (choroid plexus, [3H] ADMA and [14C] Sucrose uptake, individual mouse): 0.645 | Kp at […], 62.5 nM [5]: 0.855 | Kp at 20 min, 62.5 nM [5]: 2.24 | Kp at […], 62.5 nM (frontal cortex, Difference (ADMA minus Sucrose), individual mouse): 0.0723 | Kp at […], 62.5 nM [6]: 0.0986 | Kp at 20 min, 62.5 nM [6]: 0.276 | Kp at […], 62.5 nM (frontal cortex, [3H] ADMA and [14C] Sucrose uptake, individual mouse): 0.0847 | Kp at […], 62.5 nM [7]: 0.113 | Kp at 20 min, 62.5 nM [7]: 0.302 | Kp at […], 62.5 nM (hippocampus, Difference (ADMA minus Sucrose), individual mouse): 0.0843 | Kp at […], 62.5 nM [8]: 0.1 | Kp at 20 min, 62.5 nM [8]: 0.254 | Kp at […], 62.5 nM (hippocampus, [3H] ADMA and [14C] Sucrose uptake, individual mouse): 0.0898 | Kp at […], 62.5 nM [9]: 0.109 | Kp at 20 min, 62.5 nM [9]: 0.273 | Kp at […] (hypothalamus, Difference (ADMA minus Sucrose), individual mouse): 0.0965 | Kp at […] [10]: 0.0993 | Kp at 20 min, 62.5 nM [10]: 0.364 | Kp at […] [11]: 0.114 | Kp at […] [12]: 0.127 | Kp at 20 min, 62.5 nM [11]: 0.38 | Kp at 20 min, 62.5 nM [12]: 0.416 | Kp at […], 62.5 nM (occipital cortex, Difference (ADMA minus Sucrose), individual mouse): 0.0744 | Kp at […], 62.5 nM [13]: 0.086 | Kp at 20 min, 62.5 nM [13]: 0.268 | Kp at […], 62.5 nM (occipital cortex, [3H] ADMA and [14C] Sucrose uptake, individual mouse): 0.083 | Kp at […], 62.5 nM [14]: 0.0969 | Kp at 20 min, 62.5 nM [14]: 0.293 | Kp at […], 62.5 nM [15]: 0.235 | Kp at 20 min, 62.5 nM [15]: 0.986 | Kp at 30 min, 62.5 nM [15]: 0.416 | Kp at 10 min [15]: 1.94 | Kp at […], 62.5 nM [16]: 0.527 | Kp at 20 min, 62.5 nM [16]: 1.32 | Kp at 10 min [16]: 2.56 | Kp at 30 min, 62.5 nM (pineal gland, uptake into pineal gland, [3H] ADMA + [14C] Sucrose, Balb/c ♂, mean): 0.614 | Kp at […] [17]: 0.585 | Kp at 20 min, 62.5 nM [17]: 1.19 | Kp at […] [18]: 0.761 | Kp at 20 min, 62.5 nM [18]: 1.4 | Kp at […] [19]: 0.0907 | Kp at 20 min, 62.5 nM [19]: 0.306 | Kp at […] (pons, [3H] ADMA and [14C] Sucrose uptake, individual mouse): 0.0924 | Kp at […] [20]: 0.117 | Kp at 20 min, 62.5 nM [20]: 0.347 | Kp at […] (thalamus, Difference (ADMA minus Sucrose), individual mouse): 0.0741 | Kp at […] [21]: 0.0969 | Kp at 20 min, 62.5 nM [21]: 0.282 | Kp at […] [22]: 0.0799 | Kp at […] [23]: 0.108 | Kp at 20 min, 62.5 nM [22]: 0.331 | Kp at 20 min, 62.5 nM [23]: 0.312 | CNS-to-blood efflux (multiple-time uptake studies, loss of linearity): presence of CNS-to-blood efflux
SMILES: CN(C)C(N)=NCCC[C@H](N)C(=O)O [ADMA, N^G,N^G-dimethylarginine dihydrochloride]
